The numbers were not newly measured in article PMC6891678, “A Novel Prodrug Approach for Central Nervous System-Selective Estrogen Therapy” (Molecules, 2019), which cites them from elsewhere.

The subject of one data set is liver homogenate. The conditions noted are these: 100 μM, 37 °C, homogenate 0.2% w/v, pH 7.4; mean ± SD.
The next data set relates to brain homogenate. The conditions noted are these: 100 μM, 37 °C, homogenate 0.2% w/v, pH 7.4; mean ± SD.
The next data set has as its system retina homogenate. The settings on record: 100 μM, 37 °C, homogenate 0.2% w/v, pH 7.4; mean ± SD.
For data set [1], the system named is transient middle cerebral artery occlusion (tMCAO) ischemic stroke model. The conditions noted are these: for ED50 (dose equivalent to 50% of the maximum effect): neuroprotection, tMCAO followed by reperfusion.
In data set [2] the test system is uterus. The settings on record: after E2-CDS.
The conditions of data set [3]: E2-CDS-treated animals.
Data set [4] relates to MCP-1−/− transgenic mouse model. Also noted: method as in earlier work. The conditions noted are these: topical eye drops; for increase of contrast sensitivity compared to the vehicle control: ipsilateral/treated eye.
Data set [5] deals with ER transcription (ERE-Luc reporter).
Test in data set [6]: not given
The source holds these as a separate data set.

Another data set deals with OVX CD1 mice. The settings on record: increasing s.c. doses, 5 days once daily.
In data set [7] the test system is middle-aged OVX Fisher-344 rats. The conditions noted are these: continuous 7-week s.c. administration, 4 µg daily dose.
A further data set concerns amyloid-β peptide (Aβ). The conditions noted are these: OVX and intact female APPswe/PS1dE9 DTG mice.
The conditions of data set [8]: 300 µg/kg s.c., 5 days once daily, SEM, n = 4.
Data set [9] has as its system uterus. The conditions noted are these: increasing s.c. doses, 5 days once daily.

As for `C[C@]12CC[C@@H]3C4=C(CC[C@H]3[C@@H]1CCC2=O)C(=O)C(=O)C=C4` [3,4-E1-quinone, estra-1,5(10)-dien-3,4,17-trione, reference compound], the “Rate of H2O2 production, Liver” value in the data set with liver homogenate is recorded as 687 ± 40 nmol·h^−1·mg protein^−1. Further, the “Rate of H2O2 production, Brain” value with brain homogenate was 1050 ± 8 nmol·h^−1·mg protein^−1. The “Rate of H2O2 production, Retina” value in the data set with retina homogenate was 580 ± 50 nmol·h^−1·mg protein^−1.
Take `C[C@]12CC[C@H]3[C@@H](CCC4=CC(=O)C=C[C@@]43O)[C@@H]1CCC2=O` [HEDD, 10β-hydroxyestra-1,4-dien-3,17-dione]: in [1] (without peripheral hormonal liability), the “neuroprotection in stroke model” value was “significant neuroprotection”.
Take `CN1C=CCC(C(=O)O[C@H]2CC[C@H]3[C@@H]4CCc5cc(O)ccc5[C@H]4CC[C@]23C)=C1` [E2-CDS]: the “wet uterine weight relative to control (uterotrophic effect)” value in the data set on uterus [2] is recorded as “significant increase in wet uterine weight”. The “E2 content of uterus” value in data set [3] was 1 to 3 ng/g.
With `C[C@]12CC[C@@H]3c4ccc(O)cc4CC[C@H]3[C@@H]1CC[C@@H]2O` [E2, 17β-estradiol, reference compound], the oral bioavailability entry was “lacks appreciable oral bioavailability”. In data set [4], the “increase of contrast sensitivity compared to the vehicle control” value is ~2 fold and the “preservation of contrast sensitivity compared to the wild-type (WT) control” value was ~50%. The “ED50 (dose equivalent to 50% of the maximum effect)” value in data set [1] is recorded as ~ 200 µg/kg. Also, the “time of maximum bioluminescence effect after drug treatment” value in [5] (E2 20 μg/kg s.c.) is given as “about 3 h”. For the same compound, the “E2 concentration in the retina” value in data set [6] (3-week daily E2 eye drops) was ~ 22 ng/g. Also, the circulating estrogen levels in [6] (chronic E2 eye drop treatment) is listed as > 400 pg/mL.
For `C[C@]12CC[C@@H]3c4ccc(O)cc4CC[C@H]3[C@@H]1CC[C@H]2O` [αE2, 17α-estradiol, reference compound], the “immobility time in PST” value with OVX CD1 mice is listed as “dose-dependent reduction in immobility times”.
With `C[C@]12CC[C@H]3[C@@H](CCC4=CC(=O)C=C[C@@]43O)[C@@H]1CC[C@@H]2O` [DHED, 10β,17β-dihydroxyestra-1,4-dien-3-one], the oral bioavailability entry is reported as “excellent oral bioavailability”. Also, the “working memory errors compared to control animals” value in data set [7] is “significantly decreased working memory errors”. For the same compound, in data set [4], the “increase of contrast sensitivity compared to the vehicle control” value is recorded as “approximately 3 fold” and the “preservation of contrast sensitivity compared to the wild-type (WT) control” value is reported as “approximately 75%”. Also, in the data set with liver homogenate, the “Rate of H2O2 production, Liver” value is recorded as 34 ± 18 nmol·h^−1·mg protein^−1. In the data set with amyloid-β peptide (Aβ), the “amyloid-β peptide (Aβ) levels in the brain” value is given as “decreased amyloid-β peptide (Aβ) levels in the brain”. In the data set on brain homogenate, the “Rate of H2O2 production, Brain” value is listed as 125 ± 19 nmol·h^−1·mg protein^−1. Moreover, the “ED50 (dose equivalent to 50% of the maximum effect)” value in data set [1] is 15 µg/kg. Further, the “Rate of H2O2 production, Retina” value with retina homogenate is given as 163 ± 9 nmol·h^−1·mg protein^−1. Further, in [5] (i.c.v. injection, 75 µg/kg), the “ER activation within the brain (bioluminescence in brain slices)” value is “profound ER activation”. The “bioluminescence in the periphery (ERE-Luc reporter activation)” value in [5] (s.c., E2 20 μg/kg, DHED 200 μg/kg) is “did not generate bioluminescence in the periphery”.
In the case of `C[C@]12CC[C@H]3[C@@H](CCC4=CC(=O)C=C[C@@]43O)[C@@H]1CC[C@H]2O` [αDHED, 10β,17α-dihydroxyestra-1,4-dien-3-one], the “immobility time in PST” value in the data set with OVX CD1 mice was “dose-dependent reduction in immobility times”. For the same compound, in data set [8], the “Cortex αE2” value is listed as 8.9 ± 1.7 ng/g and the “Serum αE2” value was <0.01 ng/mL. In addition, in data set [8] (endogenous E2), the “Cortex E2” value is 0.28 ± 0.09 ng/g, the “Serum E2” value is listed as <0.01 ng/mL and the “Uterus E2” value is 0.37 ± 0.10 ng/g. Also, in the data set with uterus [9], the “uterotrophic effect (wet uterus weight)” value is “devoid of this detrimental common side effect”.
